These results are taken from patent publication US20220241255A1, “COMBINATION CONTAINING SGC ACTIVATORS AND MINERALOCORTICOID RECEPTOR ANTAGONISTS” (Bayer Pharma Aktiengesellschaft, priority 2016, published 2022).

In test [1] the test system is L-NAME-treated transgenic renin rat (TGR(mRen2)27). Briefly: All-cause mortality / survival in L-NAME-treated renin transgenic rats. Format: in vivo. As to conditions: for Mortality: all-cause mortality during the study period, daily gavage, 15 animals per group, groups and doses per Table 1; for survival rate / animals died during the study period: finerenone 10 mg/kg od, compound of the formula (X) 1 mg/kg bid, alone or combined; for survival rate: over the study period, placebo survival 60%; for animals died during the study period: study terminated after 40% of placebo animals had died. The source says:
(§1) 3.) L-NAME-treated transgenic renin rat (TGR(mRen2)27)
(§2) The transgenic renin rat ‘TGR(mRen2)27’ is a hypertensive rat line developed by Mullins and Ganten which overexpresses the Ren-2 gene of the mouse. Additional administration of the nitrogen monoxide synthase inhibitor L-NAME induces endothelial dysfunction which increases morbidity and mortality in this model. Unless subjected to life-long antihypertensive therapy, homozygous animals die of secondary complications such as heart and kidney failure or stroke.
(§3) Male TGR(mRen2)27 renin rats aged 10 to 20 weeks are randomized to different pharmacological treatment groups and a placebo group. In addition, the nitrogen monoxide synthase inhibitor L-NAME is administered via the drinking water in a concentration of 30 to 100 mg/l. During the entire experiment, drinking water and feed are available ad libitum to the animals. The substances are administered via the feed or daily by gavage for 4-10 weeks. Animals treated in the same way but receiving either only the solvent or the feed without test substance serve as placebo group. During the experiment, the systolic blood pressure is determined at regular intervals using a tail cuff, and proteinuria and urine electrolyte composition are determined by collecting the urine in metabolic cages. At the end of the experiment, haemodynamic parameters (blood pressure, heart rate, inotropism[dp/dt], relaxation time[tau], maximum left ventricular pressure, left ventricular end-diastolic pressure[LVEDP]) are measured, and the weights of heart, kidney and lung are determined, protein elimination and biomarkers (e.g. ANP, RIA Kit RK 005-24, Phoenix Pharmaceuticals, Inc., USA, cGMP, RIA Kit RE29075, IBL International GmbH, Hamburg, Germany, renin, angiotensin I, RIA Kit CA-1533, DiaSorin S.p.A., Italy, and aldosterone, P2714, DiaSorin S.p.A., Italy) and gene expression of biomarkers by RT/TaqMan PCR following RNA isolation from cardiac and renal tissue are determined.
(§4) Cardiac and cardiovascular disorders as well as renal and cardiorenal disorders are characterized by high patient morbidity and also high mortality. This morbidity and mortality, together with various risk factors such as hypertension, can be reproduced very accurately in the above-described animal model of the L-NAME-treated renin transgenic rat. Therefore, this animal model, for example, was used to investigate MR antagonists such as, for example, finerenone according to the compound of the formula (IV) and sGC activators such as, for example, the compound of the formula (X), and combinations of both: […]
For example, the MR antagonist finerenone, corresponding to the compound of the formula (IV), and the sGC activator, corresponding to the compound of the formula (X), were tested on their own and in combinations in TGR(mRen2)27 renin rats aged 10 to 20 weeks. In addition, the nitrogen monoxide synthase inhibitor L-NAME was administered via the drinking water in a concentration of 30 to 100 mg/l. During the entire experiment, drinking water and feed were available ad libitum to the animals. The substances were administered daily by gavage for 4-10 weeks. Animals treated in the same way but receiving only the solvent for the test substance served as placebo group. In the test series, in addition to placebo (group A), the MR antagonist finerenone (10 mg/kg od) (group B) and the sGC activator corresponding to the compound of the formula (X) (1 mg/kg bid) (group C) on their own and a combination of finerenone (10 mg/kg od)+compound of the formula (X) (1 mg/kg bid) (group D) were administered. In this study, 15 animals were used per group (A, B, C, D) (Table 1):
After 40% of the placebo animals had died—the study was generally terminated once 40-50% of the placebo-treated animals had died, which corresponds to a survival rate of 60-50%—the study was terminated and the survival rates of the individual treatment groups were compared to one another.

Test [2] has the same test system. In words: Proteinuria (protein/creatinine quotient in urine) in L-NAME-treated renin transgenic rats. Format: in vivo. Particulars: for reduction of proteinuria, measured as protein/creatinine quotient in urine: finerenone 10 mg/kg od, compound of the formula (X) 1 mg/kg bid, alone or combined, versus placebo; for Urinary protein/creatinine quotient, % change vs placebo: proteinuria in % reduction from placebo at the end of the study, mean ± SEM, groups and doses per Table 1.
From the text: as §1, §2, §3, §4
Here, the quotient of protein excreted in the urine and creatinine excreted in the urine, the so-called protein/creatinine quotient, which can be used as a quantitative measure for the kidney damage, is determined.

Take `C[C@H]([C@H](C(=O)Nc1cc([C@@H](CC(=O)O)C2CC2)ccc1Cl)c1ccc(Cl)cc1)C(F)(F)F` [compound of the formula (X), (3S)-3-(4-chloro-3-{[(2S,3R)-2-(4-chlorophenyl)-4,4,4-trifluoro-3-methylbutanoyl]amino}phenyl)-3-cyclopropylpropanoic acid]: in test [1], the Mortality is listed as 27%, the survival rate was found to be 73% and the “animals died during the study period” value was determined as 27%. Moreover, in test [2], the “reduction of proteinuria, measured as protein/creatinine quotient in urine” value worked out at 8% and the “Urinary protein/creatinine quotient, % change vs placebo” value is reported as −8 + 20%.
As to `CCOc1ncc(C)c2c1[C@H](c1ccc(C#N)cc1OC)C(C(N)=O)=C(C)N2` [finerenone, (S)-4-(4-cyano-2-methoxyphenyl)-5-ethoxy-2,8-dimethyl-1,4-dihydro-1,6-naphthyridine-3-carboxamide], in test [1], the Mortality was found to be 20%, the survival rate is given as 80% and the “animals died during the study period” value is 20%. In test [2], the “reduction of proteinuria, measured as protein/creatinine quotient in urine” value amounted to 58% and the “Urinary protein/creatinine quotient, % change vs placebo” value was −58 + 16%.
